Experimental data from ChEMBL document CHEMBL1155574, “Hemolytic polar steroidal constituents of the starfish Aphelasterias japonica” (J Nat Prod, 2000).

Assay: Toxicity against mouse erythrocytes assessed as hemolytic activity
Assay type: cell-based, Erythrocyte
Conditions: read-out: ED50 (the source's name)

SMILES | HC50 [µM]
CC(=O)[C@H]1CC[C@H]2[C@@H]3C[C@H](O)[C@H]4C[C@@H](OS(=O)(=O)O)CC[C@]4(C)C3=CC[C@]12C | > 500
CC(C)CC(=O)C[C@](C)(O)[C@H]1CC[C@H]2[C@@H]3C[C@H](O)[C@H]4C[C@@H](OS(=O)(=O)O)CC[C@]4(C)C3=CC[C@@]21C [3-O-SULFOTHORNASTEROL A] | 110
CC(C)[C@H](O)C(=O)C[C@@H](C)[C@H]1CC[C@H]2[C@@H]3C[C@H](O)[C@H]4C[C@@H](OS(=O)(=O)O)CC[C@]4(C)C3=CC[C@]12C [APHELAKETOTRIOL] | 40
CC(C)[C@H](O)C(=O)C[C@@H](C)[C@H]1CC[C@H]2[C@@H]3C[C@H](O[C@H]4O[C@@H](C)[C@H](OS(=O)(=O)O)[C@@H](O)[C@@H]4O)[C@H]4C[C@@H](OS(=O)(=O)O)CC[C@]4(C)C3=CC[C@]12C [APHELASTEROSIDE C] | 190
CC(=O)[C@H]1CC[C@H]2[C@@H]3C[C@H](O[C@H]4O[C@@H](C)[C@H](OS(=O)(=O)O)[C@@H](O)[C@@H]4O)[C@H]4C[C@@H](OS(=O)(=O)O)CC[C@]4(C)C3=CC[C@]12C [CHELIFEROSIDE L1] | 175
CC(=O)[C@H]1CC[C@H]2[C@@H]3C[C@H](O[C@H]4O[C@@H](C)[C@H](O)[C@@H](O)[C@@H]4O)[C@H]4C[C@@H](OS(=O)(=O)O)CC[C@]4(C)C3=CC[C@]12C [FORBESIDE E3] | 330
